One assay addresses T1, M1 (h) (Homo sapiens, UniProt P11229).
T1 construct: expressed in transfected cells; host or cells: CHO cells
T1 sequence (P11229 1-460): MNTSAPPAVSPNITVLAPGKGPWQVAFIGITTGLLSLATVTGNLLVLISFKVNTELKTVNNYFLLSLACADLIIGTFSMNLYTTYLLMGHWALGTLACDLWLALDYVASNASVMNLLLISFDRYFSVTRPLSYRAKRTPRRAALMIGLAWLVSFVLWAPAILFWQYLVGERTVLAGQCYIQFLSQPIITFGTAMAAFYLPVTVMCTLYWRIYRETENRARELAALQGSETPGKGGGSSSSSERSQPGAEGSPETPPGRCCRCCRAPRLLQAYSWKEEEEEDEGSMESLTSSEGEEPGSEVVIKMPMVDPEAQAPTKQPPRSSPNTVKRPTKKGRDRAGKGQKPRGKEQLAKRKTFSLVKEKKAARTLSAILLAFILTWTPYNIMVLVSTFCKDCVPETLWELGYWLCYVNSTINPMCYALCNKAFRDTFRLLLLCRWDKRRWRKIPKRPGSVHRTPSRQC
Nature of the assay: CEREP panel M1 (h) agonist effect, intracellular Ca2+ fluorimetry. Type of assay: cell-based. To be noted: HCl salt tested, CHO cells. From the text: (§1) The use of in vitro pharmacological screening against a diverse range of targets (receptors, ion channels, enzymes and transporters) is used to identify undesirable off-target activity that may cause adverse drug reactions in humans. Screening panels (e.g. SafetyScreen44™ Panel, Eurofins) comprise a selection of off-targets linked with known issues in humans that could hinder or halt the development of drug candidates or market withdrawal if discovered after a drug is approved. The HCl salts of the S enantiomer and the R enantiomer of compound A were tested against a panel of such targets.
(§2) The tests were carried out according to the methods described in the following tables and indicated literature references.

The next assay has as its target ROCK1 (Homo sapiens, UniProt Q13464). Nature of the assay: Activity against kinase ROCK1. The assay is classed as biochemical. Particulars: comparison of enantiomers.
A further assay concerns the target PKCeta (Homo sapiens, UniProt P24723). Nature of the assay: Kinase panel 33P-ATP filter assay, PKCeta. The assay is classed as biochemical. Particulars: HCl salt tested; ATP Conc. 15 μM (Km); read-out: Compound IC50 (nM) PKCeta. As to the method: (§3) The HCl salts of S enantiomer and the R enantiomer of compound A were tested against a panel of kinases.
(§4) Compounds were received as powder and resuspended to 10 mM DMSO stock. Compounds were tested in 10-dose IC50 mode with a 3-fold serial dilution starting at 10 μM. Control compound, staurosporine, was tested in 10-dose IC50 mode with 4-fold serial dilution starting at 20 μM.
(§5) Reaction Conditions: Buffer Conditions: 20 mM HEPES ((4-(2-hydroxyethyl)-1-piperazineethanesulfonic acid; pH 7.5), 10 mM MgCl2, 1 mM EGTA (Ethyleneglycol-bis(p-aminoethyl)-N,N,N′,N′-tetraacetic Acid), 0.01% Brij35, 0.02 mg/ml BSA (Bovine serum albumin), 0.1 mM Na3VO4, 2 mM DTT (Dithiothreitol), 1% DMSO. Reaction Procedure: 1. Prepare indicated substrate in freshly prepared reaction buffer. 2. Deliver required cofactors to the substrate solution above. 3. Deliver indicated kinase into the substrate solution and mix gently. 4. Deliver compounds in DMSO into the kinase reaction mixture utilizing acoustic technology (Echo550). 5. Deliver ^33P-ATP (specific activity 0.01 μCi/μl final) into the reaction mixture to initiate the reaction. 6. Incubate kinase reaction for 120 minutes at room temperature. 7. […] Data Analysis: Kinase activity data were expressed as the percent remaining kinase activity in test samples compared to vehicle (dimethyl sulfoxide) reactions. […]

In assay [1] the target is T2, CB1 (h) (Homo sapiens, UniProt P21554).
T2 construct: expressed in transfected cells; host or cells: CHO cells
T2 sequence (P21554 whole entry): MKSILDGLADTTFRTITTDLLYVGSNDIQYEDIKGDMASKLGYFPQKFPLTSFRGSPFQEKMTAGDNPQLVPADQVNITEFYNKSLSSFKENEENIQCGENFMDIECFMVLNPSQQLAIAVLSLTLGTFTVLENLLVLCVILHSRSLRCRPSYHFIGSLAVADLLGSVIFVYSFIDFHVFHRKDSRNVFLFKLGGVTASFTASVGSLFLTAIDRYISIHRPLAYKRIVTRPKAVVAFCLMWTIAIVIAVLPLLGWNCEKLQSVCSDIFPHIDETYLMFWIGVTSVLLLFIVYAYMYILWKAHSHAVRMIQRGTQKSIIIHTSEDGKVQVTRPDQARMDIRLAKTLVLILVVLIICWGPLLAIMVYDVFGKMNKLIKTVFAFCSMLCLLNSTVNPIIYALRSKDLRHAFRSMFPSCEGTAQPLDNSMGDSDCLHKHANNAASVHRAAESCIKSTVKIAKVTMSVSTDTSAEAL
The experiment in a line: CEREP panel CB1 (h) agonist effect, cAMP HTRF. Type of assay: cell-based. Particulars: HCl salt tested, CHO cells.
Description: as §1, §2

For assay [2], the target named is T2, CB1 (h). The experiment in a line: CEREP panel CB1 (h) antagonist effect, cAMP HTRF. Type of assay: cell-based. To be noted: HCl salt tested; CHO cells, CP 55940 (1 nM).
Description: as §1, §2
A general note: TR-FRET usually uses a lanthanide donor and a delayed reading to cut background.

The target in another assay is T3, LATS2 (Homo sapiens, UniProt Q9NRM7).
T3 sequence (Q9NRM7 1-1088): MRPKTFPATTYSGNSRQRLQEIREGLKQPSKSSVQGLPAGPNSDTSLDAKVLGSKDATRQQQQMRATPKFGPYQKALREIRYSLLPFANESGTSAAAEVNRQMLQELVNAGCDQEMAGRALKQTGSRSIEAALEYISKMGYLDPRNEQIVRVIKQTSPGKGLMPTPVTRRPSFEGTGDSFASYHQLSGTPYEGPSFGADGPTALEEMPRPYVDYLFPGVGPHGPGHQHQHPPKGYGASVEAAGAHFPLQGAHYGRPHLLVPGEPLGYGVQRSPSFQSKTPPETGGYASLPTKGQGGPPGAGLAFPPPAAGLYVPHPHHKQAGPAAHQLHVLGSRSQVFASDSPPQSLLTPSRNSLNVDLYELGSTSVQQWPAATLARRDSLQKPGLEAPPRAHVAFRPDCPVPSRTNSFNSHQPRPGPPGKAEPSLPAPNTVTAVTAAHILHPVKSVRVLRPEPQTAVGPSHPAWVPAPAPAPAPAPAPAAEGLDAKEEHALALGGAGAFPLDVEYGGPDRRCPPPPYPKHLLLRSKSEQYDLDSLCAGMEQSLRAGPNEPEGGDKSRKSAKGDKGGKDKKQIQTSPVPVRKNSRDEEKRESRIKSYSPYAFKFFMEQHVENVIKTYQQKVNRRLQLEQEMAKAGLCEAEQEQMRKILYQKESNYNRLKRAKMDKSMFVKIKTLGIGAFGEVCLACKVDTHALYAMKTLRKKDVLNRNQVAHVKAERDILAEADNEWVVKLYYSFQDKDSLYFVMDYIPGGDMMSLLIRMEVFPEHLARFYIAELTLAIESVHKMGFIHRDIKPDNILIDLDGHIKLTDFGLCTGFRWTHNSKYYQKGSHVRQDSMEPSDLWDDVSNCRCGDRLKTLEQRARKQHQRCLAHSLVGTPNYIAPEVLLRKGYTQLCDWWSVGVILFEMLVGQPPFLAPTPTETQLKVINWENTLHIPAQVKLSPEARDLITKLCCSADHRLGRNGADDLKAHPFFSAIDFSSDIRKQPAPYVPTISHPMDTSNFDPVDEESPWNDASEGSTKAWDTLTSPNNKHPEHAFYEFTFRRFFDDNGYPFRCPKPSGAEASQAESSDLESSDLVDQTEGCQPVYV
Nature of the assay: Kinase panel 33P-ATP filter assay, LATS2. To be noted: HCl salt tested; ATP Conc. 30 μM (Km); read-out: Compound IC50 (nM) LATS2. The assay is classed as biochemical. The protocol:
as §3, §4, §5

In the next assay the target is PKCd (Homo sapiens, UniProt Q05655). The experiment in a line: Kinase panel 33P-ATP filter assay, PKCd. The assay is classed as biochemical. Particulars: HCl salt tested; ATP Conc. 10 μM (Km); read-out: Compound IC50 (nM) PKCd. As to the method: as §3, §4, §5
Chain of PKCd (Q05655 whole entry, species assumed): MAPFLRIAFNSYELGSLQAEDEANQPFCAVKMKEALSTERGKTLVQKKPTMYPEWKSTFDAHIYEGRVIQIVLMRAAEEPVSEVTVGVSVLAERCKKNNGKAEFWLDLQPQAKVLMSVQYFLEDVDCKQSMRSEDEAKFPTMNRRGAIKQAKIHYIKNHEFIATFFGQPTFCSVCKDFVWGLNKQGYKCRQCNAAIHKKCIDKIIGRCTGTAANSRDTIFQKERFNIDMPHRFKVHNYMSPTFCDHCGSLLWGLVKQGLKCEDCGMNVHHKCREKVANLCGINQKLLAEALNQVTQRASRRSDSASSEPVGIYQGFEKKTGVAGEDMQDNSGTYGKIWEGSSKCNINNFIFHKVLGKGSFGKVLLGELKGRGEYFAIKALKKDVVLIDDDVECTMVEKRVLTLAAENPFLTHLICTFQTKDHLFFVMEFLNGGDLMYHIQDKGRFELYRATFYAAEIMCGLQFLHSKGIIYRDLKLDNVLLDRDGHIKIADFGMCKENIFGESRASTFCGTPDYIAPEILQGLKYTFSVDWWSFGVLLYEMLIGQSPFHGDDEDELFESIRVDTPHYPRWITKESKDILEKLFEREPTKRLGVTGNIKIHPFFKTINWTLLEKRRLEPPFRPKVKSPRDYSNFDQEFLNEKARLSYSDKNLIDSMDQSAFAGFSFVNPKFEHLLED

Each structure is given as a SMILES string.

Chain of PKCeta (P24723 whole entry): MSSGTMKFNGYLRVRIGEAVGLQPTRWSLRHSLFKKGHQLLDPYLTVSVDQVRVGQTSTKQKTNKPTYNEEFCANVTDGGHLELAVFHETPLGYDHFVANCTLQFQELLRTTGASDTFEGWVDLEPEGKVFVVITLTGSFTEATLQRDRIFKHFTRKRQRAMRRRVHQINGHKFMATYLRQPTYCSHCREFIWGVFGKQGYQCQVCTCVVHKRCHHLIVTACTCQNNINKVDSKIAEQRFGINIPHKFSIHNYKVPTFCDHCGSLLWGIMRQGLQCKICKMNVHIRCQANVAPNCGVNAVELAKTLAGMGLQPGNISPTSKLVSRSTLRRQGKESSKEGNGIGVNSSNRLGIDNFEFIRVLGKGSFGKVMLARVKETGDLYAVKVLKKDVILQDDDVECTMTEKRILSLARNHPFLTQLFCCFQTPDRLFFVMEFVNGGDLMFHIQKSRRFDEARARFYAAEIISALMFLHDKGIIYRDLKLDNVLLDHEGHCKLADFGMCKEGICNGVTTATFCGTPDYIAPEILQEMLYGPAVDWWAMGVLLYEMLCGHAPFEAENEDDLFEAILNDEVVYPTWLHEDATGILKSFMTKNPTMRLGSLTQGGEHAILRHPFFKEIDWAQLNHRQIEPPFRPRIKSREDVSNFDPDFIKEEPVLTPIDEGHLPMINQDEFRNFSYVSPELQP
Chain of ROCK1 (Q13464 whole entry, species assumed): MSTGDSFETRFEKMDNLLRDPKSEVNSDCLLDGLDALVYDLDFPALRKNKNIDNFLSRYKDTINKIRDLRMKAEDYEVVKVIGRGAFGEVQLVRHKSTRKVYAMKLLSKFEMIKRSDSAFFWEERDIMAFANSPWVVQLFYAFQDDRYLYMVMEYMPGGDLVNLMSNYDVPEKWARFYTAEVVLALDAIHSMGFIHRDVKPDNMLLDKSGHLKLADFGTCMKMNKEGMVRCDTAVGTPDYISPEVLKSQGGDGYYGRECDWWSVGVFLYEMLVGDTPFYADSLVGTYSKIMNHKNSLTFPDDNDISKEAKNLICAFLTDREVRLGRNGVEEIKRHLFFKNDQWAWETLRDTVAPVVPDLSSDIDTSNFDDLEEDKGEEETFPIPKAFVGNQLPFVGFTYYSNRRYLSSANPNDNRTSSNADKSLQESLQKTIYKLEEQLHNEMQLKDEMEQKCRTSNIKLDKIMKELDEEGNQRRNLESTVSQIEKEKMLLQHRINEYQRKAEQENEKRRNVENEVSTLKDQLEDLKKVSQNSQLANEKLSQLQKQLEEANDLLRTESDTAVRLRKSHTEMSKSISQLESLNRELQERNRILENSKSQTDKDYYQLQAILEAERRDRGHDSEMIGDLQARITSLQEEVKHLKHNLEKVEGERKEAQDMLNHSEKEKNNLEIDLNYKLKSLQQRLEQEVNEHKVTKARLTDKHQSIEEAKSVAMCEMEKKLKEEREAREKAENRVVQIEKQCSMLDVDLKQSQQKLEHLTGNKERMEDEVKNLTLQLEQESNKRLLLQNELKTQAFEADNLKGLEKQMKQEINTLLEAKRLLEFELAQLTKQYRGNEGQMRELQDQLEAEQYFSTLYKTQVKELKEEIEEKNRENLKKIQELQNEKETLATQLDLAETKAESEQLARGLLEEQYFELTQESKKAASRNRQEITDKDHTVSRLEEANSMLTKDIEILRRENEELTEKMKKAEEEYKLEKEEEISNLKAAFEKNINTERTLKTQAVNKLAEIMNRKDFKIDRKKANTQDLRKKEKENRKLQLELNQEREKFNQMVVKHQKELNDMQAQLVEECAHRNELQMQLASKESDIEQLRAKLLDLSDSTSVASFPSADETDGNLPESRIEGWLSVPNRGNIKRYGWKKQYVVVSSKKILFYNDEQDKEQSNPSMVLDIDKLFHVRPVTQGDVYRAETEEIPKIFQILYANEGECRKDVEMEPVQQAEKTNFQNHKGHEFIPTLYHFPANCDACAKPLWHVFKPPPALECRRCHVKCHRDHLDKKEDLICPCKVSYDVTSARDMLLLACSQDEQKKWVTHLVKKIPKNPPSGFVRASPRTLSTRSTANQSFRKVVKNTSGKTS

As to `NCc1ccc(C(=O)Nc2ccncc2F)cc1-c1cccc(C(=O)Nc2ccc(SC[C@@H]3CCOC3=O)cc2)c1` [R-enantiomer], on M1 (h), the “M1 (h) (agonist effect) (EC50)” value is “Inactive”. On ROCK1, the “Difference between activities of S- and R-enantiomer against ROCK1” value is “no statistically meaningful difference”. The IC50 (as a rule, the point on the concentration scale where inhibition reaches its midpoint) was less than 0.5 nM on PKCeta, 42.7 nM at LATS2 and less than 0.5 nM on PKCd. Also, at CB1 (h) [1], the “CB1 (h) (agonist effect) (EC50)” value is “Inactive”. On CB1 (h) [2], the “CB1 (h) (antagonist effect) (IC50)” value was “Inactive”.
`NCc1ccc(C(=O)Nc2ccncc2F)cc1-c1cccc(C(=O)Nc2ccc(SC[C@H]3CCOC3=O)cc2)c1` [S-enantiomer]: the “M1 (h) (agonist effect) (EC50)” value at M1 (h) is recorded as “Inactive”. Moreover, on ROCK1, the “Difference between activities of S- and R-enantiomer against ROCK1” value is on record as “no statistically meaningful difference”. Also, the concentration for half-maximal inhibition (IC50) was 0.9 nM on PKCeta, 33.3 nM on LATS2 and 0.9 nM at PKCd. On CB1 (h) [1], the “CB1 (h) (agonist effect) (EC50)” value is listed as “Inactive”. For the same compound, on CB1 (h) [2], the “CB1 (h) (antagonist effect) (IC50)” value is given as “Inactive”.

The values above are taken from US20260078108A1, “SOLID FORMS OF A ROCK INHIBITOR” (REDX PHARMA PLC, priority 2022, published 2026).
